The test system of one data set is SCD-1 mRNA. As to the kind of experiment: Inhibition of SCD-1 mRNA induction in 3T3-L1 cells (RT-PCR). Format: cell-based, murine. To be noted: for inhibition of SCD-1 mRNA induction: result in words, MDI-treated 3T3-L1 cells. The text has this: Chomczynski, P. et al., Anal. […] NO: 4)).
Data set [1] can be described thus: Bone calcium mobilization (serum calcium on low calcium diet). Format: in vivo, rat. The note with it: result in words; vitamin D deficient rat model, compared to 1α,25(OH)2D3. How it is done:
(§1) Male, weanling Sprague-Dawley rats were placed on Diet 11 (0.47% Ca) diet+AEK for one week followed by Diet 11 (0.02% Ca)+AEK for 3 weeks. The rats were then switched to a diet containing 0.47% Ca for one week followed by two weeks on a diet containing 0.02% Ca. Dose administration began during the last week on 0.02% calcium diet. Four consecutive ip doses were given approximately 24 hours apart. Twenty-four hours after the last dose, blood was collected from the severed neck and the concentration of serum calcium determined as a measure of bone calcium mobilization. The first 10 cm of the intestine was also collected for intestinal calcium transport analysis using the everted gut sac method.

Data set [2] concerns 24-hydroxylase (24Ohase) gene promoter in ROS 17/2.8 (bone) cells. As to the kind of experiment: In vitro transcription assay (luciferase reporter). The format is cell-based. The note with it: result in words. How it is done:
Transcription activity was measured in ROS 17/2.8 (bone) cells that were stably transfected with a 24-hydroxylase (24Ohase) gene promoter upstream of a luciferase reporter gene (Arbour et al., 1998). Cells were given a range of doses. Sixteen hours after dosing the cells were harvested and luciferase activities were measured using a luminometer. RLU=relative luciferase units.
In general terms: A reporter such as luciferase makes a cellular process visible.

In data set [3] the target is T1, full-length recombinant rat vitamin D receptor (Rattus norvegicus, UniProt P13053).
T1 construct: Full-length recombinant rat receptor was expressed in E. coli; histidine tag (C); made in house; host or cells: E. coli BL21(DE3) Codon Plus RIL
T1 sequence (P13053 1-423): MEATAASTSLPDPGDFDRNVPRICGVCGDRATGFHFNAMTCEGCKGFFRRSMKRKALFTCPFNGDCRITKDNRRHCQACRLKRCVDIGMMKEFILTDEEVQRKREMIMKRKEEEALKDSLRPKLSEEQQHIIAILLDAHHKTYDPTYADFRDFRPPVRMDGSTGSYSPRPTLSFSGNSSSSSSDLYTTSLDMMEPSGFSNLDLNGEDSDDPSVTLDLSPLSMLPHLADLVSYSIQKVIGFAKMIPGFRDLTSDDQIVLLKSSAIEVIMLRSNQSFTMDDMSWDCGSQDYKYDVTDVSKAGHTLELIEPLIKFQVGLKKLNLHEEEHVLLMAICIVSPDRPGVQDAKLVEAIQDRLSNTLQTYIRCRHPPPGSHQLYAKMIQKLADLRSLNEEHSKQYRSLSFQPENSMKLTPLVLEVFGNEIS
Put plainly: Vitamin D receptor binding (competition with 3H-1,25(OH)2D3). The note with it: result in words, competition for tritiated hormone binding. How it is done:
Full-length recombinant rat receptor was expressed in E. coli BL21(DE3) Codon Plus RIL cells and purified to homogeneity using two different column chromatography systems. The first system was a nickel affinity resin that utilizes the C-terminal histidine tag on this protein. The protein that was eluted from this resin was further purified using ion exchange chromatography (S-Sepharose Fast Flow). Aliquots of the purified protein were quick frozen in liquid nitrogen and stored at −80° C. until use. For use in binding assays, the protein was diluted in TEDK50 (50 mM Tris, 1.5 mM EDTA, pH 7.4, 5 mM DTT, 150 mM KCl) with 0.1% Chaps detergent. The receptor protein and ligand concentration was optimized such that no more than 20% of the added radiolabeled ligand was bound to the receptor.
Unlabeled ligands were dissolved in ethanol and the concentrations determined using UV spectrophotometry (1,25(OH)2D3: molar extinction coefficient=18,200 and λmax=265 nm; Analogs: molar extinction coefficient=42,000 and λmax=252 nm). Radiolabeled ligand (^3H-1,25(OH)2D3, ˜159 Ci/mmole) was added in ethanol at a final concentration of 1 nM.
Radiolabeled and unlabeled ligands were added to 100 mcl of the diluted protein at a final ethanol concentration of ≦10%, mixed and incubated overnight on ice to reach binding equilibrium. The following day, 100 mcl of hydroxylapatite slurry (50%) was added to each tube and mixed at 10-minute intervals for 30 minutes. The hydroxylapaptite was collected by centrifugation and then washed three times with Tris-EDTA buffer (50 mM Tris, 1.5 mM EDTA, pH 7.4) containing 0.5% Titron X-100. After the final wash, the pellets were transferred to scintillation vials containing 4 ml of Biosafe II scintillation cocktail, mixed and placed in a scintillation counter. Total binding was determined from the tubes containing only radiolabeled ligand.

Another data set relates to 3T3-L1 cells. As to the kind of experiment: Inhibition of 3T3-L1 differentiation into mature adipocytes (Oil-Red-O staining). The format is cell-based, murine. The note with it: for inhibition of differentiation of 3T3-L1 cells into mature adipocytes (Oil-Red-O staining): result in words, MDI-treated cells, staining at day 10. How it is done: Various 19-nor vitamin D analogs were or are tested and found to inhibit the differentiation of preadipocytes into mature adipocytes, to reduce body fat, to inhibit an increase in PPARγ, C/EBPα, and/or SCD-1 gene transcription and to be useful in treating and preventing obesity both in vivo and in vitro. The undifferentiated preadipocyte 3T3-L1 subline, a derivative of the original mouse fibroblast cell line, is one of the most accepted models for investigating the adipogenesis process and was used for the analysis. Two days after reaching confluence, 3T3-L1 cells can be induced to differentiate into adipocytes (see Mackall, J. C. et al. J. Biol. Chem., 251(20), 6462-6464 (1976)) with the addition of a cAMP phosphodiesterase inhibitor, dexamethasone (a glucocortoid), and insulin. […] The induction of PPARγ and C/EBPα is required for adipocyte differentiation. […] SCD-1 is an enzyme found in adipocytes that converts saturated fatty acids (C16 and C18) to their monounsaturated forms (C16:1 and C18:1). The deposition of triglyceride can also be detected as early as 3 days, and by the 7th to 14th days post-confluence, greater than 80% of the cells in the monolayer stain positively with Oil-red-O.

Data set [4] concerns Human promyelocytic leukemia (HL60) cells. Put plainly: HL-60 differentiation (nitro blue tetrazolium reduction). The note with it: for cells induced to differentiate in the NBT assay: concentration 1×10^−7 M; for differentiation of HL-60 cells, compared to 1α,25(OH)2D3: result in words. Format: cell-based. How it is done: The study drugs were dissolved in ethanol and the concentrations determined using UV spectrophotometry. Serial dilutions were prepared so that a range of drug concentrations could be tested without changing the final concentration of ethanol (≦0.2%) present in the cell cultures.
Human promyelocytic leukemia (HL60) cells were grown in RPMI-1640 medium containing 10% fetal bovine serum. The cells were incubated at 37° C. in the presence of 5% CO2.
HL60 cells were plated at 1.2×10^5 cells/ml. Eighteen hours after plating, cells in duplicate were treated with drug. Four days later, the cells were harvested and a nitro blue tetrazolium reduction assay was performed (Collins et al., 1979; J. Exp. Med. 149:969-974). The percentage of differentiated cells was determined by counting a total of 200 cells and recording the number that contained intracellular black-blue formazan deposits. Verification of differentiation to monocytic cells was determined by measuring phagocytic activity (data not shown).

Data set [5] is described as follows: Intestinal calcium transport (everted gut sac). Format: in vivo. The note with it: result in words, vitamin D deficient rat model, compared to 1α,25(OH)2D3. As for the experimental part:
as §1

Entries after “also recorded” stand apart in the source; their conditions may differ.

As for `CC(CCCC(C)(C)O)C1CCC2C(=CC=C3CC(O)C(=CCCO)C(O)C3)CCCC21C` (stereo not drawn) [1AGS], the “inhibition of SCD-1 mRNA induction” value with SCD-1 mRNA was “nearly equipotent; also recorded: active”. Besides, the “bone calcium mobilization activity” value in data set [1] is listed as “significant ability to mobilize calcium from bone; also recorded: active”. The “transcriptional activity in bone cells, compared to 1α,25(OH)2D3” value in data set [2] is “significant transcriptional activity”. In addition, the “binding to the vitamin D receptor, compared to 1α,25(OH)2D3” value (“binding … compared to 1α,25(OH)2D3” below) is “very active” in data set [3] and “less than five times less potent” in data set [3] (listed as AGS). For the same molecule, the “inhibition of differentiation of 3T3-L1 cells into mature adipocytes (Oil-Red-O staining)” value in the data set with 3T3-L1 cells is “nearly equipotent; also recorded: highest activity; also recorded: so much greater; also recorded: active”; with 3T3-L1 cells (listed as LAGS), “slightly more active”. Further, the “cells induced to differentiate in the NBT assay” value in data set [4] was “same degree of differentiation”. Also, the “differentiation of HL-60 cells, compared to 1α,25(OH)2D3” value (“differentiation of HL-60 cells” below) in data set [4] is “as potent as”. Also, in data set [5], the “intestinal calcium transport activity” value was “relatively high intestinal calcium transport activity; also recorded: active”.

In the case of `C=C1[C@H](O)CC(=C/C=C2\CCC[C@]3(C)[C@@H]([C@@H](C)CCCC)CC[C@@H]23)C[C@H]1O` [(20S)OM], the “inhibition of SCD-1 mRNA induction” value with SCD-1 mRNA is “still possess activity”; in the data set on SCD-1 mRNA (listed as OM) it was “increased slightly”. Further, the “bone calcium mobilization activity” value in data set [1] is given as “very little bone calcium mobilization activity”. Further, the “transcriptional activity in bone cells, compared to 1α,25(OH)2D3” value in data set [2] is on record as “about the same transcriptional activity”. Moreover, the “binding … compared to 1α,25(OH)2D3” value in data set [3] is on record as “as or nearly effective as calcitriol”; in data set [3] (listed as OM) it was “bound equally well”. The “inhibition of differentiation of 3T3-L1 cells into mature adipocytes (Oil-Red-O staining)” value with 3T3-L1 cells is recorded as “still possess activity”; in the data set with 3T3-L1 cells (listed as OM), “increased slightly”. Also, the “differentiation of HL-60 cells” value in data set [4] is given as “almost as potent”. Further, the “intestinal calcium transport activity” value was “less activity” in data set [5] (listed as (20S)-OM) and “very little activity” in data set [5] (listed as OM).

As to `COCOCCC=C1C(O)CC(=CC=C2CCCC3(C)C2CCC3C(C)CCCC(C)(C)O)CC1O` (stereo not drawn) [F-Wit], the “inhibition of SCD-1 mRNA induction” value with SCD-1 mRNA is on record as “active”. In data set [1], the “bone calcium mobilization activity” value is “significant ability to mobilize calcium from bone; also recorded: active”. Further, in data set [2], the “transcriptional activity in bone cells, compared to 1α,25(OH)2D3” value is “significant transcriptional activity”. Moreover, in data set [3], the “binding … compared to 1α,25(OH)2D3” value was “very active; also recorded: less than five times less potent”. Moreover, the “inhibition of differentiation of 3T3-L1 cells into mature adipocytes (Oil-Red-O staining)” value in the data set with 3T3-L1 cells is “also active”. Further, in data set [4], the “cells induced to differentiate in the NBT assay” value is listed as “same degree of differentiation” and the “differentiation of HL-60 cells” value was “as potent as”. Besides, the “intestinal calcium transport activity” value in data set [5] is recorded as “relatively high intestinal calcium transport activity; also recorded: active”.

`C=C1[C@H](O)CC(=C/C=C2\CCC[C@@H]3[C@@H]([C@@H](C)CCCC(C)(C)O)CC[C@@H]23)C[C@H]1O` [VD-03]: the “inhibition of SCD-1 mRNA induction” value with SCD-1 mRNA is given as “active”. Also, in data set [1], the “bone calcium mobilization activity” value is “relatively low ability”. For the same molecule, the “transcriptional activity in bone cells, compared to 1α,25(OH)2D3” value in data set [2] was “higher transcriptional activity”. Further, the “binding … compared to 1α,25(OH)2D3” value in data set [3] is listed as “very active; also recorded: as well as the native hormone”. The “fold more active than the native hormone 1α,25-(OH)2D3 in inhibition of adipocyte differentiation” value in the data set with 3T3-L1 cells (Oil-Red-O staining) is “approximately 10 fold”. Also, the “inhibition of differentiation of 3T3-L1 cells into mature adipocytes (Oil-Red-O staining)” value in the data set on 3T3-L1 cells is on record as “active”. In addition, in data set [4], the “differentiation of HL-60 cells” value is given as “high potency”. Also, in data set [5], the “intestinal calcium transport activity” value is “about as active as; also recorded: approximately the same activity”.

For `C=C1[C@H](O)CC(=C/C=C2\CCC[C@]3(C)C(=C(C)C)CC[C@@H]23)C[C@H]1O` [VIT-I], the “inhibition of SCD1 mRNA induction” value in the data set with SCD-1 mRNA (tested at 1×10^−8.5 M) was “active”. Also, the “bone calcium mobilization activity” value in data set [1] is reported as “very little bone calcium mobilization activity”. Further, in data set [2], the “transcriptional activity in bone cells, compared to 1α,25(OH)2D3” value is given as “about the same transcriptional activity”. For the same molecule, the “binding … compared to 1α,25(OH)2D3” value in data set [3] is “bound equally well; also recorded: as well as the native hormone”. The “inhibition of differentiation of 3T3-L1 cells into mature adipocytes (Oil-Red-O staining)” value with 3T3-L1 cells is “has activity”. The “inhibition of differentiation of MDI-treated 3T3-L1 cells (oil-red-O staining)” value in the data set with 3T3-L1 cells (tested at 1×10^−8.5 M) is given as “active”. For the same molecule, the “differentiation of HL-60 cells” value in data set [4] is on record as “almost as potent”. Further, the “intestinal calcium transport activity” value in data set [5] is reported as “very little activity; also recorded: less activity”.

For the origin of these results see US8188064B2, “Vitamin D analogs for obesity prevention and treatment” (Wisconsin Alumni Research Foundation, priority 2003, dated 2012).
